Results published in patent publication US9469615B2, “Quinoxalines and AZA-quinoxalines as CRTH2 receptor modulators” (Merck Sharp & Dohme Corp., priority 2010, dated 2016).

Target: T1, hCRTH2 (Homo sapiens, UniProt Q9Y5Y4)
T1 construct: expressed in transfected cells; host or cells: HEK (human embryonic kidney) cells expressing hCRTH2; membrane preparation
T1 sequence (Q9Y5Y4 1-395): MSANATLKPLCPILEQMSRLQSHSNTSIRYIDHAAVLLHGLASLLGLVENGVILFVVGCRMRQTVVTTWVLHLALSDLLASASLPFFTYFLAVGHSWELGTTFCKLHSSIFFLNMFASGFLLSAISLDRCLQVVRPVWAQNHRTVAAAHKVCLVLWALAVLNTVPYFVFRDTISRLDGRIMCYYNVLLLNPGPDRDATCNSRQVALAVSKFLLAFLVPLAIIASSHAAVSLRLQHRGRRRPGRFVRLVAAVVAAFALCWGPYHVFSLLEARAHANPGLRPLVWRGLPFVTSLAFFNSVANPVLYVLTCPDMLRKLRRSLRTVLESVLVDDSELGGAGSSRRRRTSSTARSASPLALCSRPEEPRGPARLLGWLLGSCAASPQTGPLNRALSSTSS
Test: Radioligand binding assay ([3H]PGD2 competition, HEK-hCRTH2 membranes)
Details: [3H]PGD2 binding, rated A-E (Table A)
How it was run: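 Membranes (8-20 μg protein) from HEK-hCRTH2 cells were incubated 60 min at room temperature with 3.0 nM [3H]PGD2 in 50 mM Tris-HCl pH 7.4, 1 mM EDTA, 2 mM MnCl2, 1% DMSO. Non-specific binding defined with 10 μM PGD2. Bound radioactivity counted after filtration.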

O=C(NCc1cccc(Cl)c1)c1ccc2nc(-c3ccccc3)c(CCCc3nnn[nH]3)nc2c1 [compound 22] and O=C(O)CCCc1nc2cc(C(=O)NCc3cccc(Cl)c3)ccc2nc1-c1ccccc1 [compound 23, 7-[[[(3-chlorophenyl)methyl]amino]carbonyl]-3-phenyl-2-quinoxalinebutanoic acid] fall in the same range of Ki: 20.1 to 200 nM for the first, 20.1 to 200 nM for the second.

First: O=C(O)CCCCc1nc2cc(C(=O)N3CC[C@@H](c4ccccc4)C3)c(F)cc2nc1-c1ccc(Cl)cc1 [compound 24, 3-(4-chlorophenyl)-6-fluoro-7-[(3(S)-phenyl-1-pyrrolidinyl)carbonyl]-2-quinoxalinepentanoic acid]
Second: O=C(O)CCCCc1nc2cc(C(=O)N3CCC(c4ccccc4)C3)ccc2nc1-c1ccc(F)cc1 (stereo not drawn) [compound 106, 3-(4-fluorophenyl)-7-[(3-phenyl-1-pyrrolidinyl)carbonyl]-2-quinoxalinepentanoic acid]
The Ki of the first is higher: 2.1 to 20 nM for the first, 0.1 to 2 nM for the second. The second binds more tightly here.

Compared with O=C(O)CCCCc1nc2cc(S(=O)(=O)N3CCC(c4ccccc4)CC3)ccc2nc1-c1ccc(Cl)cc1 [compound 25, 5-(3-(4-chlorophenyl)-7-(4-phenylpiperidin-1-ylsulfonyl)quinoxalin-2-yl)pentanoic acid], O=C(O)CCCCc1nc2cc(C(=O)N3CCC(c4ccccc4)CC3)ccc2nc1-c1ccc(F)cc1 [compound 105, 3-(4-fluorophenyl)-7-[(4-phenyl-1-piperidinyl)carbonyl]-2-quinoxalinepentanoic acid] is lower in Ki: 201 to 700 nM for the first, 2.1 to 20 nM for the second. The second binds more tightly here.

First: O=C(O)CCCCc1nc2cc(C(=O)N3CCC(c4ccccc4)C3)ccc2nc1-c1ccc(C(F)(F)F)cc1 (stereo not drawn) [compound 26, 5-(7-(3-Phenylpyrrolidine-1-carbonyl)-3-(4-(trifluoromethyl)phenyl)-quinoxalin-2-yl)pentanoic acid]
Second: O=C(O)CCOCc1nc2cc(C(=O)N3CCC(c4ccccc4)CC3)ccc2nc1-c1ccc(Cl)cc1 [compound 29, 3-((3-(4-chlorophenyl)-7-(4-phenylpiperidine-1-carbonyl)quinoxalin-2-yl)methoxy)propanoic acid]
The Ki of the first is lower: 0.1 to 2 nM for the first, 2.1 to 20 nM for the second. The first binds more tightly here.

O=C(O)C1CC(Cc2nc3cc(C(=O)N4CCC(c5ccccc5)CC4)ccc3nc2-c2ccc(Cl)cc2)C1 (stereo not drawn) [compound 30, 3-((3-(4-chlorophenyl)-7-(4-phenylpiperidine-1-carbonyl)quinoxalin-2-yl)methyl)cyclobutanecarboxylic acid] and O=C(O)Cc1cc(F)cc(CCc2nc3cc(C(=O)N4CCC(c5ccccc5)CC4)ccc3nc2-c2ccc(Cl)cc2)c1 [compound 42, 2-(3-(2-(3-(4-chlorophenyl)-7-(4-phenylpiperidine-1-carbonyl)quinoxalin-2-yl)ethyl)-5-fluorophenyl)acetic acid] fall in the same range of Ki: 2.1 to 20 nM for the first, 2.1 to 20 nM for the second.

First: O=C(O)CCCCc1nc2cc(C(=O)N3CC(c4nc5ccccc5[nH]4)C3)ccc2nc1-c1ccc(F)cc1 [compound 31, 5-(7-(3-(1H-benzo[d]imidazol-2-yl)azetidine-1-carbonyl)-3-(4-fluorophenyl)quinoxalin-2-yl)pentanoic acid]
Second: O=C(O)CCCCc1nc2cc(C(=O)NC3Cc4ccccc4C3)ccc2nc1-c1ccc(F)cc1 [compound 103, 7-[[(2,3-dihydro-1H-inden-2-yl)amino]carbonyl]-3-(4-fluorophenyl)-2-quinoxalinepentanoic acid]
The Ki of the first is higher: 2.1 to 20 nM for the first, 0.1 to 2 nM for the second. The second binds more tightly here.

O=C(O)Cc1cccc(CCCc2nc3cc(C(=O)N4CCC(c5ccccc5)CC4)ccc3nc2-c2ccc(Cl)cc2)c1 [compound 32, 2-(3-(3-(3-(4-chlorophenyl)-7-(4-phenylpiperidine-1-carbonyl)quinoxalin-2-yl)propyl)phenyl)acetic acid] and COCCn1c(=O)n(C2CCN(C(=O)c3ccc4nc(-c5ccccc5)c(CCCCC(=O)O)nc4c3)CC2)c2ccccc21 [compound 113, 7-[[4-[2,3-dihydro-3-(2-methoxyethyl)-2-oxo-1H-benzimidazol-1-yl]-1 - piperidinyl]carbonyl]-3-phenyl-2-quinoxalinepentanoic acid] fall in the same range of Ki: 2.1 to 20 nM for the first, 2.1 to 20 nM for the second.

O=C(O)CCCC(O)c1nc2cc(C(=O)N[C@@H]3CCCc4ccccc43)ccc2nc1-c1ccc(Cl)cc1 (stereo partly drawn) [compound 33, 5-(3-(4-chlorophenyl)-7-(((R)-1,2,3,4-tetrahydronaphthalen-1-yl)carbamoyl)quinoxalin-2-yl)-5-hydroxypentanoic acid] and O=C(O)CCCC(F)c1nc2cc(C(=O)N[C@@H]3CCCc4ccccc43)ccc2nc1-c1ccc(Cl)cc1 (stereo partly drawn) [compound 35, 5-(3-(4-chlorophenyl)-7-(((R)-1,2,3,4-tetrahydronaphthalen-1-yl)carbamoyl)quinoxalin-2-yl)-5-fluoropentanoic acid] fall in the same range of Ki: 20.1 to 200 nM for the first, 20.1 to 200 nM for the second.

Compared with O=C(O)CCCC(=O)c1nc2cc(C(=O)N[C@@H]3CCCc4ccccc43)ccc2nc1-c1ccc(Cl)cc1 [compound 34, (R)-5-(3-(4-chlorophenyl)-7-((1,2,3,4-tetrahydronaphthalen-1-yl)carbamoyl)quinoxalin-2-yl)-5-oxopentanoic acid], O=C(O)CCCCc1nc2cc(C(=O)N[C@@H]3CCCc4cc(F)ccc43)ccc2nc1-c1ccccc1 [compound 40, (R)-5-(7-((6-fluoro-1,2,3,4-tetrahydronaphthalen-1-yl)carbamoyl)-3-phenylquinoxalin-2-yl)pentanoic acid] is lower in Ki: 201 to 700 nM for the first, 2.1 to 20 nM for the second. The second binds more tightly here.

First: C[C@@H](NC(=O)c1ccc2nc(-c3ccccc3)c(CCCC(=O)O)nc2c1)c1ccc(F)cc1 [compound 36, (R)-4-(7-((1-(4-fluorophenyl)ethyl)carbamoyl)-3-phenylquinoxalin-2-yl)butanoic acid]
Second: C[C@@H](NC(=O)c1ccc2nc(-c3ccccc3)c(CCCC(F)(F)C(=O)O)nc2c1)c1ccc(F)cc1 [compound 37, (R)-2,2-difluoro-5-(7-((1-(4-fluorophenyl)ethyl)carbamoyl)-3-phenylquinoxalin-2-yl)pentanoic acid]
The Ki of the first is higher: 701 to 2300 nM for the first, 20.1 to 200 nM for the second. The second binds more tightly here.

C[C@@H]1CN(c2ccc(F)cc2)CCN1C(=O)c1ccc2nc(-c3ccccc3)c(CCCCC(=O)O)nc2c1 [compound 39, (R)-5-(7-(4-(4-fluorophenyl)-2-methylpiperazine-1-carbonyl)-3-phenylquinoxalin-2-yl)pentanoic acid] and C[C@@H]1CN(c2ccc(F)cc2)CCN1C(=O)c1ccc2nc(-c3ccccc3)c(NCCCC(=O)O)nc2c1 [compound 44, (R)-4-((7-(4-(4-fluorophenyl)-2-methylpiperazine-1-carbonyl)-3-phenylquinoxalin-2-yl)amino)butanoic acid] fall in the same range of Ki: 2.1 to 20 nM for the first, 2.1 to 20 nM for the second.

C[C@@H]1CN(c2ccccc2)CCN1C(=O)c1ccc2nc(-c3ccccc3)c(CCCCC(=O)O)nc2c1 [compound 41, (R)-5-(7-(2-methyl-4-phenylpiperazine-1-carbonyl)-3-phenylquinoxalin-2-yl)pentanoic acid] and O=C(O)CCCCc1nc2cc(C(=O)N[C@@H](c3ccccc3)C(F)(F)F)ccc2nc1-c1ccc(F)cc1 [compound 102, 3-(4-fluorophenyl)-7-[[(2,2,2-trifluoro-1(S)-phenylethyl)amino]carbonyl]-2-quinoxalinepentanoic acid] fall in the same range of Ki: 2.1 to 20 nM for the first, 2.1 to 20 nM for the second.

First: O=C(O)CCCCc1nc2cc(C(=O)NCc3ccc(Cl)cc3)ccc2nc1-c1ccc(F)cc1 [compound 100]
Second: O=C(O)CCCCc1nc2cc(C(=O)NCc3ccc(F)cc3)ccc2nc1-c1ccc(F)cc1 [compound 109, 3-(4-fluorophenyl)-7-[[[(4-fluorophenyl)methyl]amino]carbonyl]-2-quinoxalinepentanoic acid]
The Ki of the first is lower: 0.1 to 2 nM for the first, 2.1 to 20 nM for the second. The first binds more tightly here.

O=C(O)CCCCc1nc2cc(C(=O)NCc3cccc(Cl)c3)ccc2nc1-c1ccc(F)cc1 [compound 101, 7-[[[(3-chlorophenyl)methyl]amino]carbonyl]-3-(4-fluorophenyl)-2-quinoxalinepentanoic acid] and O=C(O)CCCCc1nc2cc(C(=O)NCc3cc(Cl)cc(Cl)c3)ccc2nc1-c1ccc(F)cc1 [compound 108, 7-[[[(3,5-dichlorophenyl)methyl]amino]carbonyl]-3-(4-fluorophenyl)-2-quinoxalinepentanoic acid] fall in the same range of Ki: 2.1 to 20 nM for the first, 2.1 to 20 nM for the second.

N#Cc1ccc(CNC(=O)c2ccc3nc(-c4ccc(F)cc4)c(CCCCC(=O)O)nc3c2)cc1 [compound 104, 7-[[[(4-cyanophenyl)methyl]amino]carbonyl]-3-(4-fluorophenyl)-2-quinoxalinepentanoic acid] and O=C(O)CCCCc1nc2cc(C(=O)NCc3ccc(C(F)(F)F)cc3)ccc2nc1-c1ccc(F)cc1 [compound 112] fall in the same range of Ki: 2.1 to 20 nM for the first, 2.1 to 20 nM for the second.

O=C(O)CCCCc1nc2cc(C(=O)NCc3ccc(OC(F)(F)F)cc3)ccc2nc1-c1ccc(F)cc1 [compound 107, 3-(4-fluorophenyl)-7-[[[[4-(trifluoromethoxy)phenyl]methyl]amino]carbonyl]-2-quinoxalinepentanoic acid] and C[C@@H](NC(=O)c1ccc2nc(-c3ccc(F)cc3)c(CCCCC(=O)O)nc2c1)c1ccc(F)cc1 [compound 110, 3-(4-fluorophenyl)-7-[[[1(R)-(4-fluorophenyl)ethyl]amino]carbonyl]-2-quinoxalinepentanoic acid] fall in the same range of Ki: 2.1 to 20 nM for the first, 2.1 to 20 nM for the second.

C[C@H](NC(=O)c1ccc2nc(-c3ccc(F)cc3)c(CCCCC(=O)O)nc2c1)c1ccc(F)cc1 [compound 111, 3-(4-fluorophenyl)-7-[[[1(S)-(4-fluorophenyl)ethyl]amino]carbonyl]-2-quinoxalinepentanoic acid] was tested, and the Ki was 2.1 to 20 nM.

Same assay, conditions: [3H]PGD2 binding, values in text

Going from C[C@@H](NC(=O)c1ccc2nc(-c3ccccc3)c(CCCC(=O)O)nc2c1)c1ccc(F)cc1 [compound 36, (R)-4-(7-((1-(4-fluorophenyl)ethyl)carbamoyl)-3-phenylquinoxalin-2-yl)butanoic acid] to C[C@@H]1CN(c2ccc(F)cc2)CCN1C(=O)c1ccc2nc(-c3ccccc3)c(CCCCC(=O)O)nc2c1 [compound 39, (R)-5-(7-(4-(4-fluorophenyl)-2-methylpiperazine-1-carbonyl)-3-phenylquinoxalin-2-yl)pentanoic acid], the Ki falls from 716 nM to 8 nM (90-fold). The second binds more tightly here.

Work on C[C@@H]1CN(c2ccccc2)CCN1C(=O)c1ccc2nc(-c3ccccc3)c(CCCCC(=O)O)nc2c1 [compound 41, (R)-5-(7-(2-methyl-4-phenylpiperazine-1-carbonyl)-3-phenylquinoxalin-2-yl)pentanoic acid] yielded a Ki of 8.8 nM.
